Structures can show the parent of a compound that is named as a salt.
Target: T1, Human thrombin (Homo sapiens, UniProt P00734)
T1 construct: purchased Haematologic Technologies Inc
Test: Thrombin protease activity inhibition, chromogenic substrate S-2238
Assay type: biochemical
Conditions: 3 nM thrombin, 125 μM S-2238, 10 min pre-incubation, RT
Experimental: The thrombin activity reported herein (e.g., Table A) was obtained as follows. […] Thrombin was assayed in buffer containing 0.05 M Tris (pH 7.4), 0.015 M NaCl and 0.01% PEG-8000. The final concentration of enzyme used was 3 nM thrombin. […] All assays were performed in 96-well microtiter plates at room temperature (RT). […] Inhibitor IC50 values were determined by adding test compound as ten point, three-fold serial dilutions in buffer solution, as known in the art. The plate was read at 10 minutes after substrate addition. The IC50 was calculated by plotting the percent (%) inhibition against compound concentration and fitting the data to a constrained four parameter sigmoidal curve, as known in the art.

Row | IC50 | Compound
1 | 10000 to 100000 nM | C=CCOC(=O)N1CC(c2cc(NCc3ccc(Cl)s3)[nH]n2)C1 [Entry 258, prop-2-en-1-yl 3-(5-[(5-chlorothiophen-2-yl)methyl]amino-1H-pyrazol-3-yl)azetidine-1-carboxylate]
2 | < 100 nM | CC(C)(C)OC(=O)N1CCCC(c2cc(NCc3ccc(Cl)s3)n(C(=O)C(C)(C)CO)n2)C1 (stereo not drawn) [Entry 283, tert-butyl 3-(5-[(5-chlorothiophen-2-yl)methyl]amino-1-(3-hydroxy-2,2-dimethylpropanoyl)-1H-pyrazol-3-yl)piperidine-1-carboxylate]
3 | < 100 nM | C=CCOC(=O)N1CCC(c2cc(NCc3ccc(Cl)s3)n(C(=O)C(C)(C)C)n2)C1 (stereo not drawn) [Entry 256, prop-2-en-1-yl 3-(5-[(5-chlorothiophen-2-yl)methyl]amino-1-(2,2-dimethylpropanoyl)-1H-pyrazol-3-yl)pyrrolidine-1-carboxylate]
4 | 1000 to 10000 nM | O=C(c1cccc2c1OCCO2)n1nc(C2CCNCC2)cc1NCc1ccc(Cl)s1 [Entry 143, N-[(5-chlorothiophen-2-yl)methyl]-1-(2,3-dihydro-1,4-benzodioxine-5-carbonyl)-3-(piperidin-4-yl)-1H-pyrazol-5-amine hydrochloride]
5 | < 100 nM | CC1(C(=O)n2nc(C3CCN(C(=O)N4CCOCC4)CC3)cc2NCc2ccc(Cl)s2)CCC(O)CC1 (stereo not drawn) [Entry 139, 4-(5-[(5-chlorothiophen-2-yl)methyl]amino-3-[1-(morpholine-4-carbonyl)piperidin-4-yl]-1H-pyrazole-1-carbonyl)-4-methylcyclohexan-1-ol]
6 | < 100 nM | O=C(N1CCOCC1)N1C2CCC1CC(c1cc(NCc3ccc(Cl)s3)n(C(=O)c3cscn3)n1)C2 (stereo not drawn) [Entry 213, N-[(5-chlorothiophen-2-yl)methyl]-3-[8-(morpholine-4-carbonyl)-8-azabicyclo[3.2.1]octan-3-yl]-1-(1,3-thiazole-4-carbonyl)-1H-pyrazol-5-amine]
7 | 100 to 1000 nM | CC(C)(C)C(=O)N1CC(c2cc(NCc3ccc(Cl)s3)n(C(=O)C(C)(C)C)n2)C1 [Entry 96, 1-[3-(5-[(5-chlorothiophen-2-yl)methyl]amino-1-(2,2-dimethylpropanoyl)-1H-pyrazol-3-yl)azetidin-1-yl]-2,2-dimethylpropan-1-one]
8 | 100 to 1000 nM | Cc1c(C2CCN(C(=O)OC(C)(C)C)CC2)nn(C(=O)C(C)(C)C)c1NCc1ccc(Cl)s1 [Entry 293, tert-butyl 4-(5-[(5-chlorothiophen-2-yl)methyl]amino-1-(2,2-dimethylpropanoyl)-4-methyl-1H-pyrazol-3-yl)piperidine-1-carboxylate]
9 | < 100 nM | COCC(C)(C)C(=O)n1nc(C2(C)CCN(C(=O)OC(C)(C)C)CC2)cc1NCc1ccc(Cl)s1 [Entry 298, tert-butyl 4-(5-[(5-chlorothiophen-2-yl)methyl]amino-1-(3-methoxy-2,2-dimethylpropanoyl)-1H-pyrazol-3-yl)-4-methylpiperidine-1-carboxylate]
10 | > 100000 nM | O=C(N1CCOCC1)N1CCC(c2cc(NCc3ccc(Cl)s3)[nH]n2)CC1 [Entry 203, N-[(5-chlorothiophen-2-yl)methyl]-3-[1-(morpholine-4-carbonyl)piperidin-4-yl]-1H-pyrazol-5-amine]
11 | 1000 to 10000 nM | COc1ccc(C(=O)n2nc(C3CCNCC3)cc2NCc2ccc(Cl)s2)c(OC)c1 [Entry 147, N-[(5-chlorothiophen-2-yl)methyl]-1-(2,4-dimethoxybenzoyl)-3-(piperidin-4-yl)-1H-pyrazol-5-amine]
12 | > 100000 nM | Clc1ccc(CNc2cc(C3CCN(Cc4ncno4)CC3)n[nH]2)s1 [Entry 192, N-[(5-chlorothiophen-2-yl)methyl]-3-[1-(1,2,4-oxadiazol-5-ylmethyl)piperidin-4-yl]-1H-pyrazol-5-amine]
13 | > 100000 nM | C=CCOC(=O)N1CCC(c2cc(NCc3ccc(Cl)s3)[nH]n2)CC1 [Entry 266, prop-2-en-1-yl 4-(5-[(5-chlorothiophen-2-yl)methyl]amino-1H-pyrazol-3-yl)piperidine-1-carboxylate]
14 | > 100000 nM | CC(C)(C)OC(=O)N1CCCC1c1cc(NCc2ccc(Cl)s2)[nH]n1 (stereo not drawn) [Entry 277, tert-butyl 2-(5-[(5-chlorothiophen-2-yl)methyl]amino-1H-pyrazol-3-yl)pyrrolidine-1-carboxylate]
15 | < 100 nM | O=C(N1CCOCC1)N1CCC(c2cc(NCc3ccc(Cl)s3)n(C(=O)c3cscn3)n2)C1 (stereo not drawn) [Entry 205, N-[(5-chlorothiophen-2-yl)methyl]-3-[1-(morpholine-4-carbonyl)pyrrolidin-3-yl]-1-(1,3-thiazole-4-carbonyl)-1H-pyrazol-5-amine]
16 | 1000 to 10000 nM | Cc1c(C2CCNCC2)nn(C(=O)C(C)(C)C)c1NCc1ccc(Cl)s1 [Entry 89, 1-(5-[(5-chlorothiophen-2-yl)methyl]amino-4-methyl-3-(piperidin-4-yl)-1H-pyrazol-1-yl)-2,2-dimethylpropan-1-one; formic acid]
17 | < 100 nM | CC(=O)N1CCC(c2cc(NCc3ccc(Cl)s3)n(C(=O)C(C)(C)C)n2)CC1 [Entry 94, 1-[3-(1-acetylpiperidin-4-yl)-5-[(5-chlorothiophen-2-yl)methyl]amino-1H-pyrazol-1-yl]-2,2-dimethylpropan-1-one]
18 | > 100000 nM | C=CCOC(=O)N1CCN(S(C)(=O)=O)CC1c1cc(NCc2ccc(Cl)s2)n(C(=O)C(C)(C)C)n1 (stereo not drawn) [Entry 246, prop-2-en-1-yl 2-(5-[(5-chlorothiophen-2-yl)methyl]amino-1-(2,2-dimethylpropanoyl)-1H-pyrazol-3-yl)-4-methanesulfonylpiperazine-1-carboxylate]
19 | > 100000 nM | CS(=O)(=O)N1CCNC(c2cc(NCc3ccc(Cl)s3)[nH]n2)C1 (stereo not drawn) [Entry 179, N-[(5-chlorothiophen-2-yl)methyl]-3-(4-methanesulfonylpiperazin-2-yl)-1H-pyrazol-5-amine]
20 | > 100000 nM | CN(C)S(=O)(=O)N1CCC(c2cc(NCc3ccc(Cl)s3)[nH]n2)CC1 [Entry 138, 4-(5-[(5-chlorothiophen-2-yl)methyl]amino-1H-pyrazol-3-yl)-N,N-dimethylpiperidine-1-sulfonamide]
21 | < 100 nM | COc1ccc(C(=O)n2nc(C3CCCN3)cc2NCc2ccc(Cl)s2)c(OC)c1 (stereo not drawn) [Entry 148, N-[(5-chlorothiophen-2-yl)methyl]-1-(2,4-dimethoxybenzoyl)-3-(pyrrolidin-2-yl)-1H-pyrazol-5-amine]
22 | > 100000 nM | Clc1ccc(CNc2cc(C3CCN(CC4CC4)CC3)n[nH]2)s1 [Entry 201, N-[(5-chlorothiophen-2-yl)methyl]-3-[1-(cyclopropylmethyl)piperidin-4-yl]-1H-pyrazol-5-amine]
23 | < 100 nM | CC(C)(C)OC(=O)N1CCCC(C)(c2cc(NCc3ccc(Cl)s3)n(C(=O)C(C)(C)CO)n2)C1 (stereo not drawn) [Entry 282, tert-butyl 3-(5-[(5-chlorothiophen-2-yl)methyl]amino-1-(3-hydroxy-2,2-dimethylpropanoyl)-1H-pyrazol-3-yl)-3-methylpiperidine-1-carboxylate]

Row | Compound | IC50
24 | O=S(=O)(N1CCOCC1)N1CCC(c2cc(N(Cc3ccc(Cl)s3)S(=O)(=O)N3CCOCC3)[nH]n2)CC1 [Entry 238, N-[(5-chlorothiophen-2-yl)methyl]-N-3-[1-(morpholine-4-sulfonyl)piperidin-4-yl]-1H-pyrazol-5-ylmorpholine-4-sulfonamide] | 1000 to 10000 nM
